The source made the active and inactive calls.
Columns and labels:
[1] = target: T1, Adenosylmethionine-8-amino-7-oxononanoate aminotransferase (Mycobacterium tuberculosis, UniProt P9WQ81); test: Mycobacterium tuberculosis BioA enzyme inhibitor Measured in Biochemical System Using Plate Reader - 2163-02_Inhibitor_Dose_CherryPick_Activity.; type: functional, Mycobacterium tuberculosis UT205
T1 sequence (P9WQ81 whole entry): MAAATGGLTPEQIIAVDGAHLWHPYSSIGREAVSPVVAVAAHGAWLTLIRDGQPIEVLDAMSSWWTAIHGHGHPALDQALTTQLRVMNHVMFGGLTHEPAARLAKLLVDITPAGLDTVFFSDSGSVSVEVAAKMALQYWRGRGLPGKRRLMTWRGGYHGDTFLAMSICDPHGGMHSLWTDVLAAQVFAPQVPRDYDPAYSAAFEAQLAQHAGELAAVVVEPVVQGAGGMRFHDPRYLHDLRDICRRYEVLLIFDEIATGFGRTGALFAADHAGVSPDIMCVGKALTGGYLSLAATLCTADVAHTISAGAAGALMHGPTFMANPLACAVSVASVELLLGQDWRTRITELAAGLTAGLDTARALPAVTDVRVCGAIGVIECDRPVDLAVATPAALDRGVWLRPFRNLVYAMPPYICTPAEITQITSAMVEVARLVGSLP

cells [2] = type: functional, cell-based
cells [3] = type: functional, cell-based; remark: listed apart in the source
cells [4] = test: cells
[5] = target: T2, Oxysterols receptor LXR-beta (Homo sapiens, UniProt P55055); type: functional, cell-based;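 further: Cell-based luminescence dose-response assay of agonist activity at LXR, run as a confirmatory counterscreen to a daf-12 agonist screen; HEK293 cells with Gal4-LXR fusion and GAL4-driven luciferase reporter; agonist potency from rising luciferase signal of a Gal4-LXR reporter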
T2 sequence (P55055 whole entry): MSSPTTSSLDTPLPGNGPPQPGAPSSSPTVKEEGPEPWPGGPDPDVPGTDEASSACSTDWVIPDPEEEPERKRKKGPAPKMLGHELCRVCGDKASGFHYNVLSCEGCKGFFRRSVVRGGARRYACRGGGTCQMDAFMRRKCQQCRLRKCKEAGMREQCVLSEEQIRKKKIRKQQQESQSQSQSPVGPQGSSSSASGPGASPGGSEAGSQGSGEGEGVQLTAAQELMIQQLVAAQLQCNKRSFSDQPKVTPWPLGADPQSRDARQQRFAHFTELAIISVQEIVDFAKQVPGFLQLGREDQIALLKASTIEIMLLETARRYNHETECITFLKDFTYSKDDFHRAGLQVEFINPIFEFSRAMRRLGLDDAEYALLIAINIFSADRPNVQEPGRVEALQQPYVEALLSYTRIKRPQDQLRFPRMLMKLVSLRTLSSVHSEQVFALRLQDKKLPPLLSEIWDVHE

[6] = cytotoxicity toward NIH3T3 fibroblasts, dose response, counter-screen, cell-based, ATP luminescence, mouse fibroblasts (AID 2010); type: functional;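 further: cells exposed to compound for about 90 hours before reading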
[7] = inhibitors of intracellular T. cruzi replication, confirmation, NIH3T3 host cells, beta-gal luminescence (AID 2044); type: functional, cell-based;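 further: intracellular parasites grown in NIH/3T3 mouse fibroblasts as host cells; luminescent beta-galactosidase reporter signal from transgenic T. cruzi replicating inside host cells; inhibitors lower the luminescence signal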
[8] = microbe, parasite or virus in culture; type: functional; settings: Mycobacterium tuberculosis
[9] = cytotoxicity in KRAS-transformed pancreatic duct cells, primary screen, cell-based, fluorescence, HTS (AID 431); type: functional; settings: Homo sapiens;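 further: cell line used: HPDE-C7K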
[10] = cytotoxicity in HPDE-C7 cells, cell-based, fluorescence, HTS (AID 430); type: functional; settings: Homo sapiens
[11] = target: Induced myeloid leukemia cell differentiation protein Mcl-1 (Homo sapiens, UniProt Q07820); type: functional
Sequence of Induced myeloid leukemia cell differentiation protein Mcl-1 (Q07820 whole entry): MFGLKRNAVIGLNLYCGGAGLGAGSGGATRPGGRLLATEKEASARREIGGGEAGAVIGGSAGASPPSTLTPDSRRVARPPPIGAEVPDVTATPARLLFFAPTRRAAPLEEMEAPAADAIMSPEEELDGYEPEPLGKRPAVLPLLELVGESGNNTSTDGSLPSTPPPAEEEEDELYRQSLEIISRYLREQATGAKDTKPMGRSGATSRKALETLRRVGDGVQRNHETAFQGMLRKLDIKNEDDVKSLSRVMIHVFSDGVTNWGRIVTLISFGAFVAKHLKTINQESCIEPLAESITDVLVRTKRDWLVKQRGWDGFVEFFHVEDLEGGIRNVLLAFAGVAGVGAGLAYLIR

Compound: Cc1ccc(-c2nnc(N3CCN(C(=O)CSc4nc[nH]n4)CC3)c3ccccc23)cc1
- AC50 [1]: 1.07 µM (active)

Compound: COc1ccc(C2CC(c3cccs3)=NN2C(=O)CSc2nc(=O)n3cc(C)ccc3n2)cc1 (configuration not stated)
- EC50 (cells [2]): > 350 µM (not active)
- EC50 (cells [3]): > 350 µM (not active)

Compound: Cc1ccc(Cc2c(C)nc3nc(SCC(=O)NCCCN4CCCCC4)nn3c2C)cc1
- AC50 [1]: 11.1 µM (active)

Compound: N=C(NOC(=O)c1cccs1)c1ccc(Cl)cc1
- EC50 (cells [2]): > 350 µM (not active)
- EC50 (cells [3]): 7.41 µM (active)

Compound: CC(Oc1ccc2ccc(=O)oc2c1)C(=O)N1CCOCC1 (configuration not stated)
- AC50 [1]: 6.85 µM (active)

Compound: COc1ccc2oc(C(=O)Nc3ccccn3)c(C)c2c1
- EC50 (cells [4]): > 67.5 µM (inactive)
- EC50 [5]: > 67.5 µM (inactive)

Compound: Cc1cccc(-c2cc3c(N=O)c4ccccc4c-3[nH]n2)c1
- EC50 [6]: > 60 µM (not active)
- EC50 [7]: 4.86 µM (active)
- EC50 (cells [4]): > 67.5 µM (inactive)
- EC50 [5]: > 67.5 µM (inactive)

Compound: Oc1ccccc1NCC(O)Cn1ccc2ccccc21 (configuration not stated)
- CC50 [8]: > 40 µM (active)
- EC50 [9]: 13.2 µM (active)
- EC50 [10]: 12.8 µM (active)
- IC50 [11]: 4.49 µM (active)

— ChEMBL document CHEMBL1201862, “PubChem BioAssay data set” (2004)
